Patent publication US20030232101A1, “Topical formulations of resorcinols and cannibinoids and methods of use” (Immugen Pharmaceuticals, Inc., priority 2002, published 2003)
In brackets after ≈: the same amount, converted by molar mass.

Legend:
Assay type in all cases: cell-based
[1] = test system: IIIB strain of HIV-1; test: Virus attachment assay, HeLa CD4 LTR β-gal cells (Experimental Example 2); conditions: Human immunodeficiency virus 1, IIIB, HeLa, read-out: Attachment Assay IC50
Procedure: (§1) This assay detects compounds that block virus attachment using HeLa CD4 LTR β-gal cells. HeLa CD4 LTR β-gal cells were cultured with selection antibiotics. Twenty-four h prior to initiation of the assay, the cells were trypsinized, counted and plated in a 0.2 cm well in media without selection antibiotics. At 24 h media is removed and compound in media placed on the cells and incubated for 15 min at 37° C. A known titer of the IIIB strain of HIV-1 was then added to the wells and the incubation continued for 1 to 2 h. At the end of the incubation the wells were washed 2 times with media and the culture continued for 40 to 48 h. At termination of the assay, media is removed and β-galactosidase enzyme expression determined by chemiluminescence per manufacturer's instructions (Tropix Gal-screen, Bedford Mass.). Compound toxicity is monitored on a sister plate by XTT or MTS dye reduction. All determinations are performed in triplicate with serial_Log10 dilution of the test materials.

[2] = test system: HeLa CD4 LTR β-gal cells; test: Compound toxicity in the attachment assay, sister plate, XTT or MTS (Example 2)
Procedure: as §1, with “materials. The virus adsorption interval of 1 to 2 h was sufficiently short that AZT, which requires phosphorylation to achieve its active tri-phosphate form (AZT-TTP), is not active in this assay.” for “materials.”

[3] = test system: HIV-1; test: HeLa CD4 LTR β-gal HIV-1 attachment assay (Experimental Example 1); conditions: Human immunodeficiency virus 1, HeLa
[4] = test system: HeLa CD4 LTR β-gal cells; test: Compound toxicity in the attachment assay, sister plates, MTS dye reduction
Procedure: (§2) At assay termination the assay plates were stained with the soluble tetrazolium-based dye MTS (CellTiter96® Reagent Promega) to determine cell viability and quantify compound toxicity. MTS is metabolized by the mitochondria enzymes of metabolically active cells to a soluble formazan product, allowing the rapid quantitative analysis cell viability and compound cytotoxicity. […] At termination of the assay 20 μL of MTS reagent was added per well and incubated for 4 h at 37° C. Adhesive plate sealers were used in place of the lids, the sealed plate was inverted several times to mix the soluble formazan product and the plate was read spectrophotometrically at 490 nm with a Molecular Devices Vmax plate reader.
The attachment assay was performed with the HeLa CD4 LTR β-gal cells available from the AIDS Research and Reference Reagent Repository. […] HeLa CD4 LTR β-gal cells express cell surface CD4 and contain an LTR β-galactosidase reporter construct. Upon infection either the Tat protein incorporated into the virion or new Tat produced following virus integration and transcription trans-activates the LTR β-gal reporter, leading to expression of the β-galactosidase enzyme. HeLa CD4 LTR β-gal cells are routinely cultured with the required selection antibiotics and screened for mycoplasma contamination. Twenty-four h prior to initiation of the assay cells were trypsinized, counted and 1×10^4 cells placed in a 0.2 cm well in media without selection antibiotics. […] A known titer of virus was then added to the wells and the incubation continued for 1 h. At the end of the incubation the wells were washed 6 times with media and the culture continued for 48 h. At 48 h the wells were washed one time with PBS and β-galactosidase enzyme expression determined by chemiluminescence per manufacturers instructions (Tropix Gal-screen™, Tropix, Bedford, Mass.). Compound toxicity was monitored on sister plates using MTS dye reduction.

[5] = test system: HeLa CD4 LTR β-gal cells; test: Compound toxicity in the fusion assay, sister plates, MTS dye reduction; conditions: no timed addition; 48 h
Procedure: as §2
(§3) Twenty-four h prior to initiation of the assay cells were trypsinized, counted and 5×10^3 cells placed in a 0.2 cm well in media without selection antibiotics. To initiate the fusion assay HeLa CD4 LTR β-gal (5×10^3 cells per 0.2 cm well) were incubated with compound for 1 h at 37° C. HL2/3 cells (5×10^3) were added to the 0.2 cm well and the incubation continued for 48 h. At 48 h the wells were washed 1 time with PBS and β-galactosidase enzyme expression determined by chemiluminescence per manufacturers instructions (Tropix Gal-screen™, Tropix, Bedford, Mass.). Compound toxicity was monitored on sister plates using MTS dye reduction.

[6] = test system: interaction of HIV gp 120 with CD4 (HeLa CD4 LTR β-gal / HL2/3 cell fusion); test: HeLa CD4 LTR β-gal/HL2/3 HIV-1 fusion assay (Experimental Example 1); conditions: Human immunodeficiency virus 1, HeLa, 48 h, read-out: Antiviral Activity IC50
From the text: This assay uses the HeLa CD4 LTR β-gal and HL2-3 cells available from the AIDS Research and Reference Reagent Repository. The fusion assay utilizes HeLa CD4 LTR β-gal cells with HL2/3 cells as a fusion partner via the interaction of HIV gp 120 with CD4. HL2/3 cells express HIV-1 Env on their cell surface and contain an HIV-1 Tat expression cassette. Upon syncytium formation and plasma membrane fusion, cytoplasmic mixing of the HL2/3 and HeLa CD4 LTR b-gal cell contents results in the transactivation of the LTR and β-Galactosidase expression is then directly related to […] cell membrane fusion. Thus, these two mechanistic assays can be used to confirm and identify a virus entry-based target of the compound. Additionally, because the attachment assay uses cell-free virus this assay can be used to show applicability to cell-free virus transmission.
as §3
In addition to assessing inhibition of attachment with HeLa CD4 LTR β-gal cells a virus fusion assay was perfoed using HeLa CD4 LTR β-gal and HL2/3 cells. No timed addition of compound was employed, but rather the assay was performed to verify the effects of the compounds on the HeLa CD4 LTR β-gal cells β-galactosidase expression.

[7] = test system: HeLa CD4 LTR β-gal cells; test: Compound toxicity in the fusion assay, sister plate, XTT or MTS (Example 2)
Procedure: (§4) The fusion assay assesses the ability of compounds to block cell-to-cell fusion mediated by HIV-1 Env and CD4 expressed on separate cells. This assay is sensitive to inhibitors of both the gp 120/CD4 interaction and inhibitors of the X4 coreceptor. HeLa CD4 LTR β-gal cells were plated in microtiter wells and diluted compounds are added and allowed to incubate at 37° C. for 1 hr prior to the addition of HL2/3 cells. The incubation was then continued for 40 to 48 h, after which fusion is monitored by measurement of β-galactosidase enzyme expression, detectable by chemiluminescence (Tropix Gal-screen, Tropix, Bedford, Mass.). Compound toxicity is monitored on a sister plate using XTT or MTS dye reduction. All determinations are performed in triplicate with serial_Log10 dilution of the test materials.

[8] = test system: cell-to-cell fusion mediated by HIV-1 Env and CD4; test: Fusion assay, HeLa CD4 LTR β-gal and HL2/3 cells (Experimental Example 2); conditions: Human immunodeficiency virus 1, HL2/3, read-out: Fusion Assay IC50
Procedure: as §4

COc1cc(-c2ccc(/N=N/c3ccc4c(S(=O)(=O)O)cc(S(=O)(=O)O)c(N)c4c3O)c(OC)c2)ccc1/N=N/c1ccc2c(S(=O)(=O)O)cc(S(=O)(=O)O)c(N)c2c1O [CSB, Chicago Sky Blue, reference compound]
IC50 [1]: 0.63 µg/mL (≈ 0.696 µM) | Attachment Assay TC50 [2]: >10 µg/mL | IC50 ([3]; Experiment 1, pretreat 0 h): 1.1 µg/mL (≈ 1.22 µM) | IC50 ([3]; Experiment 1, pretreat 4 h): 1.71 µg/mL (≈ 1.89 µM) | IC50 ([3]; Experiment 1, pretreat 24 h): 1.3 µg/mL (≈ 1.44 µM) | IC50 ([3]; Experiment 2, pretreat 0 h): 0.17 µg/mL (≈ 0.188 µM) | IC50 ([3]; Experiment 2, pretreat 4 h): 2.11 µg/mL (≈ 2.33 µM) | IC50 ([3]; Experiment 2, pretreat 24 h): 4.7 µg/mL (≈ 5.19 µM) | TC50 ([4]; Experiment 1, pretreat 0 h): >10 µg/mL | TC50 ([4]; Experiment 1, pretreat 4 h): >10 µg/mL | TC50 ([4]; Experiment 1, pretreat 24 h): >10 µg/mL | TC50 ([4]; Experiment 2, pretreat 0 h): >10 µg/mL | TC50 ([4]; Experiment 2, pretreat 4 h): >10 µg/mL | TC50 ([4]; Experiment 2, pretreat 24 h): >10 µg/mL | TC50 [5]: >10 µg/mL | IC50 [6]: 1.75 µg/mL (≈ 1.93 µM) | Fusion Assay TC50 [7]: >100 µg/mL | IC50 [8]: 0.41 µg/mL (≈ 0.453 µM)
